{"source": "the supplement of paper PMC10307832", "assay_in_all_cases": "relative viability (nuclei count vs DMSO), 5 days (fraction); higher = more cells survive", "key": {"NCI-H2085": {"tested_on": "NCI-H2085", "summary_of_the_method": "(§1)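 Each reported value is a median over duplicate plates. It expresses relative viability: treated-well nuclei count divided by vehicle-well nuclei count. Lung cancer cell lines in 1536-well plates were dosed by pin tool a day after seeding, alone with one drug or with a fixed anchor-drug dose plus five library-drug doses (not always all listed) in √10 steps, and nuclei were counted after 5 days.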"}, "NCI-H358": {"tested_on": "NCI-H358", "summary_of_the_method": "as §1"}, "SW 1573": {"tested_on": "SW 1573", "summary_of_the_method": "as §1"}, "201T": {"tested_on": "201T", "summary_of_the_method": "as §1"}, "LCLC-97TM1": {"tested_on": "LCLC-97TM1", "summary_of_the_method": "as §1"}, "NCI-H1975": {"tested_on": "NCI-H1975", "summary_of_the_method": "as §1"}, "HCC-44": {"tested_on": "HCC-44", "summary_of_the_method": "as §1"}, "NCI-H2342": {"tested_on": "NCI-H2342", "summary_of_the_method": "as §1"}, "H3255": {"tested_on": "H3255", "summary_of_the_method": "as §1"}, "BEN": {"tested_on": "BEN", "summary_of_the_method": "as §1"}, "NCI-H1437": {"tested_on": "NCI-H1437", "summary_of_the_method": "as §1"}, "NCI-H1666": {"tested_on": "NCI-H1666", "summary_of_the_method": "as §1"}, "NCI-H647": {"tested_on": "NCI-H647", "summary_of_the_method": "as §1"}, "EPLC-272H": {"tested_on": "EPLC-272H", "summary_of_the_method": "as §1"}, "PC-3 [JPC-3]": {"tested_on": "PC-3 [JPC-3]", "summary_of_the_method": "as §1"}, "LU99A": {"tested_on": "LU99A", "summary_of_the_method": "as §1"}, "NCI-H1395": {"tested_on": "NCI-H1395", "summary_of_the_method": "as §1"}, "NCI-H2126": {"tested_on": "NCI-H2126", "summary_of_the_method": "as §1"}, "COR-L 105": {"tested_on": "COR-L 105", "summary_of_the_method": "as §1"}, "LOU-NH91": {"tested_on": "LOU-NH91", "summary_of_the_method": "as §1"}, "HCC-827": {"tested_on": "HCC-827", "summary_of_the_method": "as §1"}, "EKVX": {"tested_on": "EKVX", "summary_of_the_method": "as §1"}, "NCI-H2087": {"tested_on": "NCI-H2087", "summary_of_the_method": "as §1"}, "HOP-62": {"tested_on": "HOP-62", "summary_of_the_method": "as §1"}}}
{"smiles": "CC(C)Oc1cc(Nc2nc(N[C@@H](C)c3ccc(F)cn3)ncc2Cl)n[nH]1", "note": "[AZ23] + Cc1cc(Nc2cc(N3CCN(C)CC3)nc(Sc3ccc(NC(=O)C4CC4)cc3)n2)n[nH]1 [Tozasertib] (partner 0.1 µM)", "values": [{"measurement": "relative viability", "setting": "NCI-H2085; first compound 0.01 µM", "result": 0.799}, {"measurement": "relative viability", "setting": "NCI-H2085; first compound 0.03162 µM", "result": 0.855}, {"measurement": "relative viability", "setting": "NCI-H2085; first compound 0.3162 µM", "result": 0.803}, {"measurement": "relative viability", "setting": "NCI-H358; first compound 0.01 µM", "result": 0.101}, {"measurement": "relative viability", "setting": "NCI-H358; first compound 0.03162 µM", "result": 0.114}, {"measurement": "relative viability", "setting": "NCI-H358; first compound 0.3162 µM", "result": 0.107}, {"measurement": "relative viability", "setting": "SW 1573; first compound 0.01 µM", "result": 0.168}, {"measurement": "relative viability", "setting": "SW 1573; first compound 0.03162 µM", "result": 0.151}, {"measurement": "relative viability", "setting": "SW 1573; first compound 0.3162 µM", "result": 0.17}, {"measurement": "relative viability", "setting": "201T; first compound 0.01 µM", "result": 1.03}, {"measurement": "relative viability", "setting": "201T; first compound 0.03162 µM", "result": 0.968}, {"measurement": "relative viability", "setting": "201T; first compound 0.3162 µM", "result": 0.985}, {"measurement": "relative viability", "setting": "LCLC-97TM1; first compound 0.01 µM", "result": 0.186}, {"measurement": "relative viability", "setting": "LCLC-97TM1; first compound 0.03162 µM", "result": 0.266}, {"measurement": "relative viability", "setting": "LCLC-97TM1; first compound 0.3162 µM", "result": 0.194}, {"measurement": "relative viability", "setting": "NCI-H1975; first compound 0.01 µM", "result": 0.836}, {"measurement": "relative viability", "setting": "NCI-H1975; first compound 0.03162 µM", "result": 0.977}, {"measurement": "relative viability", "setting": "NCI-H1975; first compound 0.3162 µM", "result": 0.744}, {"measurement": "relative viability", "setting": "HCC-44; first compound 0.01 µM", "result": 0.991}, {"measurement": "relative viability", "setting": "HCC-44; first compound 0.03162 µM", "result": 0.841}, {"measurement": "relative viability", "setting": "HCC-44; first compound 0.3162 µM", "result": 1.15}, {"measurement": "relative viability", "setting": "NCI-H2342; first compound 0.01 µM", "result": 0.482}, {"measurement": "relative viability", "setting": "NCI-H2342; first compound 0.03162 µM", "result": 0.483}, {"measurement": "relative viability", "setting": "NCI-H2342; first compound 0.3162 µM", "result": 0.455}, {"measurement": "relative viability", "setting": "H3255; first compound 0.01 µM", "result": 0.662}, {"measurement": "relative viability", "setting": "H3255; first compound 0.03162 µM", "result": 0.821}, {"measurement": "relative viability", "setting": "H3255; first compound 0.3162 µM", "result": 0.675}, {"measurement": "relative viability", "setting": "BEN; first compound 0.01 µM", "result": 0.483}, {"measurement": "relative viability", "setting": "BEN; first compound 0.03162 µM", "result": 0.544}, {"measurement": "relative viability", "setting": "BEN; first compound 0.3162 µM", "result": 0.527}, {"measurement": "relative viability", "setting": "NCI-H1437; first compound 0.01 µM", "result": 0.434}, {"measurement": "relative viability", "setting": "NCI-H1437; first compound 0.03162 µM", "result": 0.449}, {"measurement": "relative viability", "setting": "NCI-H1437; first compound 0.3162 µM", "result": 0.413}, {"measurement": "relative viability", "setting": "NCI-H1666; first compound 0.01 µM", "result": 0.558}, {"measurement": "relative viability", "setting": "NCI-H1666; first compound 0.03162 µM", "result": 0.583}, {"measurement": "relative viability", "setting": "NCI-H1666; first compound 0.3162 µM", "result": 0.545}, {"measurement": "relative viability", "setting": "NCI-H647; first compound 0.01 µM", "result": 0.146}, {"measurement": "relative viability", "setting": "NCI-H647; first compound 0.03162 µM", "result": 0.449}, {"measurement": "relative viability", "setting": "NCI-H647; first compound 0.3162 µM", "result": 0.261}, {"measurement": "relative viability", "setting": "EPLC-272H; first compound 0.01 µM", "result": 0.384}, {"measurement": "relative viability", "setting": "EPLC-272H; first compound 0.03162 µM", "result": 0.263}, {"measurement": "relative viability", "setting": "EPLC-272H; first compound 0.3162 µM", "result": 0.246}, {"measurement": "relative viability", "setting": "PC-3 [JPC-3]; first compound 0.01 µM", "result": 1.03}, {"measurement": "relative viability", "setting": "PC-3 [JPC-3]; first compound 0.03162 µM", "result": 0.87}, {"measurement": "relative viability", "setting": "PC-3 [JPC-3]; first compound 0.3162 µM", "result": 0.959}, {"measurement": "relative viability", "setting": "LU99A; first compound 0.01 µM", "result": 0.243}, {"measurement": "relative viability", "setting": "LU99A; first compound 0.03162 µM", "result": 0.286}, {"measurement": "relative viability", "setting": "LU99A; first compound 0.3162 µM", "result": 0.296}, {"measurement": "relative viability", "setting": "NCI-H1395; first compound 0.03162 µM", "result": 0.812}, {"measurement": "relative viability", "setting": "NCI-H1395; first compound 0.3162 µM", "result": 0.815}, {"measurement": "relative viability", "setting": "NCI-H2126; first compound 0.01 µM", "result": 0.923}, {"measurement": "relative viability", "setting": "NCI-H2126; first compound 0.03162 µM", "result": 0.939}, {"measurement": "relative viability", "setting": "NCI-H2126; first compound 0.3162 µM", "result": 0.892}, {"measurement": "relative viability", "setting": "COR-L 105; first compound 0.01 µM", "result": 0.375}, {"measurement": "relative viability", "setting": "COR-L 105; first compound 0.03162 µM", "result": 0.447}, {"measurement": "relative viability", "setting": "COR-L 105; first compound 0.3162 µM", "result": 0.365}, {"measurement": "relative viability", "setting": "LOU-NH91; first compound 0.01 µM", "result": 0.641}, {"measurement": "relative viability", "setting": "LOU-NH91; first compound 0.03162 µM", "result": 0.72}, {"measurement": "relative viability", "setting": "LOU-NH91; first compound 0.3162 µM", "result": 0.644}, {"measurement": "relative viability", "setting": "HCC-827; first compound 0.01 µM", "result": 0.448}, {"measurement": "relative viability", "setting": "HCC-827; first compound 0.03162 µM", "result": 0.445}, {"measurement": "relative viability", "setting": "HCC-827; first compound 0.3162 µM", "result": 0.415}, {"measurement": "relative viability", "setting": "EKVX; first compound 0.01 µM", "result": 0.471}, {"measurement": "relative viability", "setting": "EKVX; first compound 0.03162 µM", "result": 0.458}, {"measurement": "relative viability", "setting": "EKVX; first compound 0.3162 µM", "result": 0.407}, {"measurement": "relative viability", "setting": "NCI-H2087; first compound 0.01 µM", "result": 0.271}, {"measurement": "relative viability", "setting": "NCI-H2087; first compound 0.03162 µM", "result": 0.245}, {"measurement": "relative viability", "setting": "NCI-H2087; first compound 0.3162 µM", "result": 0.245}, {"measurement": "relative viability", "setting": "HOP-62; first compound 0.01 µM", "result": 0.352}, {"measurement": "relative viability", "setting": "HOP-62; first compound 0.03162 µM", "result": 0.424}, {"measurement": "relative viability", "setting": "HOP-62; first compound 0.3162 µM", "result": 0.37}]}
